# Legend:
# EphA6 = target: T1, EphA6 (Mus musculus, UniProt Q62413); assay: Chemical proteomics pull-down with immobilized compound, LC-MS/MS identification; conditions: maximum in any chemical proteomics experiment
# T1 sequence (Q62413 23-1035): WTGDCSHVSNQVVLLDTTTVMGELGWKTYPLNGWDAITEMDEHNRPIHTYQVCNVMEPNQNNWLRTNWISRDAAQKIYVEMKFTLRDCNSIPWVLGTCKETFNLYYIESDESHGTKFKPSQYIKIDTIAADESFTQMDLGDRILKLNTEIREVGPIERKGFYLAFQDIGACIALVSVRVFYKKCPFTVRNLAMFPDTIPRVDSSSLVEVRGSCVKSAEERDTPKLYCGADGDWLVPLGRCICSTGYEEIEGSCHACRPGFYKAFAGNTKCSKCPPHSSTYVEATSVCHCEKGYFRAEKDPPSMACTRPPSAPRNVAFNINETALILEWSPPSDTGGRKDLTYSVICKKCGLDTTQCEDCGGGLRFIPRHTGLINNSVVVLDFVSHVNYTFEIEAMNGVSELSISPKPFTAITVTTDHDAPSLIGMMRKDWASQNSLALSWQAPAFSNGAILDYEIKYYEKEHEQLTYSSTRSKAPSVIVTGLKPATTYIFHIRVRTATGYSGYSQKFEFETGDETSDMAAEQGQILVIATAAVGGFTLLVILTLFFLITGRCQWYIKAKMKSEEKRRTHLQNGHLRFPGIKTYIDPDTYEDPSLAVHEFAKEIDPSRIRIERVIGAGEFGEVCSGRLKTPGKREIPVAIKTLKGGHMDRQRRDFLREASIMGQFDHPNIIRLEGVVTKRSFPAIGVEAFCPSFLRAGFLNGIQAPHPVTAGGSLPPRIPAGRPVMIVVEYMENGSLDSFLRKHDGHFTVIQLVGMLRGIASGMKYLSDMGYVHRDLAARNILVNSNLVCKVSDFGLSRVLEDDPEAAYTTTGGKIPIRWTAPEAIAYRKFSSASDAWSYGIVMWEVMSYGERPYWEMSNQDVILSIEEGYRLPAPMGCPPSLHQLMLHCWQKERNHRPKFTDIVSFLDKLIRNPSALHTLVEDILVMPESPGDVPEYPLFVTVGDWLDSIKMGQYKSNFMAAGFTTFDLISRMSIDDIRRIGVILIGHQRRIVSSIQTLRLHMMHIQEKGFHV
# TAP-tagged Eph kinases [1] = assay: Autophosphorylation of TAP-tagged Eph kinases in-vitro; type: biochemical; conditions: data not shown
# TAP-tagged Eph kinases [2] = assay: Autophosphorylation of TAP-tagged Eph kinases in cells; type: cell-based; conditions: in cells (FIG. 2)
# Procedure: Cells are plated in 6-well plates in growth medium (see above). To test potential modulators, preferably inhibitors, of Eph kinase tyrosine phosphorylation, cells are starved in serum-free medium for 4 h. Under these conditions, Eph-TAP kinase is partially constitutively phosphorylated-presumably through autophosphorylation that is commonly associated with over-expression of receptor tyrosine kinases. This feature is exploited to monitor the effect of Eph kinase modulators. Test compounds are diluted (from a stock in DMSO) in serum-free medium and added to cells for indicated times. Cells are chilled on ice and washed with ice-cold PBS. They are then lysed in 300 μl lysis buffer (50 mM Tris-HCl, 1% NP-40, 0.05% SDS, 100 mM NaCl, 1.5 mM MgCl2, 2 mM EDTA, 5% glycerol, pH 7.6) for 20 min at 4 °C and cleared by centrifugation at 16,100×g in a table-top centrifuge for 20 min.
# (§1) Lysates are subsequently incubated with 20 μl pre-washed rabbit IgG beads (Sigma) for 2 h with constant agitation at 4° C. Beads are finally washed with 1 ml of lysis buffer and immobilized protein complexes are eluted by boiling in 40 μl SDS sample buffer.
# Blot membranes are probed with monoclonal antibody 4G10 (Upstate Biotechnology) or with HRP-coupled PAP antibody (see above).
# EphB2-TAP = target: T2, EphB2-TAP (Homo sapiens, UniProt P29323); assay: Cellular Eph kinase tyrosine phosphorylation assay; type: cell-based; conditions: SK-N-BE2 neuroblastoma cells, treatment 10 min. at 37 °C, Western blot anti-phosphotyrosine
# T2 construct: The cDNAs encoding the complete ORF are obtained by RT-PCR; expressed in transfected cells; host or cells: SK-N-BE2 neuroblastoma cells (ATCC CRL-2271), retroviral transduction
# T2 sequence (P29323 19-1055): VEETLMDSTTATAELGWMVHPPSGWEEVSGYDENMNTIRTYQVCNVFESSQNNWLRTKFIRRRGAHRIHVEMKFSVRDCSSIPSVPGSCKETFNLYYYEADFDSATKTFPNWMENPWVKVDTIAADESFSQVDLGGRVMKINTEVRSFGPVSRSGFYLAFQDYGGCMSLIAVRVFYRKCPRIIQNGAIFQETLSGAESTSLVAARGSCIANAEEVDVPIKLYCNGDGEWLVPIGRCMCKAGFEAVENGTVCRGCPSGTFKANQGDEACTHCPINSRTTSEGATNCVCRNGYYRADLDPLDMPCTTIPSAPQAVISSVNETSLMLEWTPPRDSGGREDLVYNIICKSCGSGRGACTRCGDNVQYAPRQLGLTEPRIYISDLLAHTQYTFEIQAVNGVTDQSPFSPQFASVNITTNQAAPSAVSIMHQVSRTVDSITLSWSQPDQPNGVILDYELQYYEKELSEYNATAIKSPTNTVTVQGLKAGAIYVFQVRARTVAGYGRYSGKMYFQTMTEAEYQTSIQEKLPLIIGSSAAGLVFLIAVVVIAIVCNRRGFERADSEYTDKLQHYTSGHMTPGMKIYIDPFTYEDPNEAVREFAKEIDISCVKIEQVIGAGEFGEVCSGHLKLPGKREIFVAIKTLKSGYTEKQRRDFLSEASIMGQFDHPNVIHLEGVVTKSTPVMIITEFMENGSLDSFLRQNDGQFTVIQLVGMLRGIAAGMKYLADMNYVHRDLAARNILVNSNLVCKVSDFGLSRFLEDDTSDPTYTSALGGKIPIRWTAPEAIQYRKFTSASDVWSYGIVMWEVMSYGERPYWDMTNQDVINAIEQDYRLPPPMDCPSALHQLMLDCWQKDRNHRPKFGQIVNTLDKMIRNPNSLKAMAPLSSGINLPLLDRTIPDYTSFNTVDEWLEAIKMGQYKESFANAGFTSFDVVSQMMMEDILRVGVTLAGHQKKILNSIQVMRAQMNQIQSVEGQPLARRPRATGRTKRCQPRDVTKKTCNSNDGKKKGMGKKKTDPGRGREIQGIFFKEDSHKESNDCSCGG
# Procedure: (§2) Following treatment, cells were lysed in a detergent-containing buffer and TAP-tagged Eph kinases were captured with IgG beads. Bound TAP-tagged proteins were analyzed by SDS-PAGE and Western blotting, utilizing either anti-phosphotyrosine or anti-TAP antibodies for detection.
# (§3) Cells are plated in 6-well plates in growth medium (see above). […] This feature is exploited to monitor the effect of Eph kinase modulators. Test compounds are diluted (from a stock in DMSO) in serum-free medium and added to cells for indicated times. Cells are chilled on ice and washed with ice-cold PBS. They are then lysed in 300 μl lysis buffer (50 mM Tris-HCl, 1% NP-40, 0.05% SDS, 100 mM NaCl, 1.5 mM MgCl2, 2 mM EDTA, 5% glycerol, pH 7.6) for 20 min at 4 °C and cleared by centrifugation at 16,100×g in a table-top centrifuge for 20 min.
# as §1
# EphA4-TAP = target: T3, EphA4-TAP (Homo sapiens, UniProt P54764); assay: Cellular Eph kinase tyrosine phosphorylation assay; type: cell-based; conditions: SK-N-BE2 neuroblastoma cells, treatment 10 min. at 37 °C, Western blot anti-phosphotyrosine
# T3 construct: The cDNAs encoding the complete ORF are obtained by RT-PCR; expressed in transfected cells; host or cells: SK-N-BE2 neuroblastoma cells (ATCC CRL-2271), retroviral transduction
# Procedure: as §2, §3, §1
# T3 sequence (P54764 20-986): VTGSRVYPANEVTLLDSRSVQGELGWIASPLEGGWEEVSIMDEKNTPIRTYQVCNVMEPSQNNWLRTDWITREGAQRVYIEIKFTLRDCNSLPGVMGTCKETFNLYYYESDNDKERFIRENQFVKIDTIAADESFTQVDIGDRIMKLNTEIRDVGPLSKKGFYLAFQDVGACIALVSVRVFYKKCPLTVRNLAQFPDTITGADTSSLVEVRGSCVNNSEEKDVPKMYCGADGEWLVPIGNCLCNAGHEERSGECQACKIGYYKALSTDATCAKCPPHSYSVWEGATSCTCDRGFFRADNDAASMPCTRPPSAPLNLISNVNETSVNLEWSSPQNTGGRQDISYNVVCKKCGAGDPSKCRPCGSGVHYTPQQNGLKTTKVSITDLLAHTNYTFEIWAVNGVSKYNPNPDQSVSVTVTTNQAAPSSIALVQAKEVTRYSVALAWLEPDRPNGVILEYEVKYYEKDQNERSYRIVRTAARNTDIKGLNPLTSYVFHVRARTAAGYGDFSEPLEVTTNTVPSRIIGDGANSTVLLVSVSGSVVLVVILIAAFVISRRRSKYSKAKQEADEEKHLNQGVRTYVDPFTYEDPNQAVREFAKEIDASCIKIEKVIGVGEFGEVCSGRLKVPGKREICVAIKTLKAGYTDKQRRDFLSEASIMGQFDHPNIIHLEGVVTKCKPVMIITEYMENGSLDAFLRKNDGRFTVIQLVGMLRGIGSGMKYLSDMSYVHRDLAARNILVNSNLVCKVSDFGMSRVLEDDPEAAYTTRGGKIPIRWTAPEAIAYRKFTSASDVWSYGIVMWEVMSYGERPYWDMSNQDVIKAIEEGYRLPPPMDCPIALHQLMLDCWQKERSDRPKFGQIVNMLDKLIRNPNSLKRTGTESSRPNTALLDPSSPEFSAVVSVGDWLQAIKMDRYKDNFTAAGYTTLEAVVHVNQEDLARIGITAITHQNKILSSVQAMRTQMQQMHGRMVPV
"maximal number of non-redundant peptides identified, EphA6 (EphA6)",SMILES,inhibition of autophosphorylation of TAP-tagged Eph kinases in-vitro (TAP-tagged Eph kinases [1]),inhibition of autophosphorylation of TAP-tagged Eph kinases in cells (TAP-tagged Eph kinases [2]),tyrosine phosphorylation of EphB2-TAP (EphB2-TAP),tyrosine phosphorylation of EphA4-TAP (EphA4-TAP)
7,NCCCn1cc(C2=C(c3c[nH]c4ccccc34)C(=O)NC2=O)c2ccccc21 [BisIII],,,,
,Cc1ccc(NC(=O)c2ccc(CN3CCN(C)CC3)cc2)cc1Nc1nccc(-c2cccnc2)n1 [Gleevac],potent inhibitors,potent inhibitors,inhibits tyrosine phosphorylation of Eph kinases in a concentration-dependent manner,inhibits tyrosine phosphorylation of Eph kinases in a concentration-dependent manner

# Source: patent US20080213250A1, “Use of Eph Receptor Inhibitors for the Treatment of Neurodegenerative Diseases” (priority 2004, published 2008)
